Experimental findings from US9145351B2, “Azole derivatives, methods for producing the same, intermediate thereof, agro-horticultural agents” (KUREHA CORPORATION, priority 2009, dated 2015) are described below.

In experiment [1] the test system is Puccinia recondita. The experiment can be described thus: Efficacy test against wheat brown rust, 1 mg/L (Experimental Example 10). The experiment is classed as in vivo. Conditions: 1 g/ha (1 mg/L sprayed at 1,000 L/ha).
In experiment [2] the test system is Septoria tritici. As to the kind of experiment: Assay for fungicidal effect on Septoria tritici, plate medium 1.25 mg/L (Experimental Example 9). The experiment is classed as cell-based. The protocol:
Each inventive compound was dissolved in 2 ml of dimethyl sulfoxide. 0.6 ml of this solution was added to 60 nil of a PDA medium (potato dextrose agar medium) at about 60 degrees C., which was mixed thoroughly in a 100-ml conical flask, and poured into a dish, where it was solidified, thereby obtaining a plate medium containing the inventive compound at 50 mg/L and 5 mg/L. On the other hand, a subject microorganism previously cultured on a plate medium was cut out using a cork borer whose diameter was 4 mm, and inoculated to the test compound-containing plate medium described above. […] The growth degree of the microorganism on the test compound-containing plate medium thus observed was compared with the growth degree of the microorganism in the untreated group, and % mycelial growth inhibition was calculated by the following equation. R=100(dc−dt)/dc wherein R=% mycelial extension inhibition, dc=flora diameter in untreated plate, dt=flora diameter in treated plate. The results obtained as described above were evaluated as one of the 5 grades according to the following criteria. […] In this Experimental Example, the fungicidal effects of the inventive compounds on Septoria tritici were examined by the methods described in the Experimental Example 5. In this Experimental Example, the inventive compounds were diluted at 1.25 mg/L.

The subject of experiment [3] is Cladosporium sp. The experiment can be described thus: Plate medium assay, industrial material deteriorating microorganism, Cladosporium (Experimental Example 5). The experiment is classed as cell-based. Conditions: treatment at 50 mg/l, PDA plate medium, read-out: growth inhibition grade. The protocol:
(§1) In this Experimental Example, the fungicidal effects of the inventive compounds on various phytopathogenic fungi for plants and hazardous microorganism for industrial materials were examined by the methods described below. Each inventive compound was dissolved in 2 ml of dimethyl sulfoxide. 0.6 ml of this solution was added to 60 nil of a PDA medium (potato dextrose agar medium) at about 60 degrees C., which was mixed thoroughly in a 100-ml conical flask, and poured into a dish, where it was solidified, thereby obtaining a plate medium containing the inventive compound at 50 mg/L and 5 mg/L. On the other hand, a subject microorganism previously cultured on a plate medium was cut out using a cork borer whose diameter was 4 mm, and inoculated to the test compound-containing plate medium described above. […] The growth degree of the microorganism on the test compound-containing plate medium thus observed was compared with the growth degree of the microorganism in the untreated group, and % mycelial growth inhibition was calculated by the following equation. R=100(dc-dt)/dc wherein R=% mycelial extension inhibition, dc=flora diameter in untreated plate, dt=flora diameter in treated plate. The results obtained as described above were evaluated as one of the 5 grades according to the following criteria.

The subject of experiment [4] is Septoria tritici. As to the kind of experiment: Microplate test of biocidal effect on wheat Septoria blotch (Experimental Example 4). The experiment is classed as cell-based. Conditions: Zymoseptoria tritici, 240 h; % mycelium growth inhibition, absorbance 550 nm, 20 degrees C. for about 10 days; read-out: activity level (EC80). How it is done:
A spore suspension of wheat Septoria blotch (Septoria tritici) (spore concentration: 1×10^6 cells/ml) was prepared, and subjected to 100-fold dilution with a PD medium. A flat 96-well microplate was provided and 1 microliter of the test compound solution formed by dissolution in dimethyl sulfoxide (DMSO) at a concentration 100 times the test concentration was dispensed to the microplate, and then 100 microliter of the medium containing the spore was added and stirred thoroughly. […] R=100×(dc−dt)/dc: R: % mycelium growth inhibition dc: Absorbance of non-treatment zone dt: Absorbance of treatment zone

Experiment [5] relates to Aureobasidium sp. The experiment can be described thus: Plate medium assay, industrial material deteriorating microorganism, Aureobasidium (Experimental Example 5). The experiment is classed as cell-based. Conditions: treatment at 50 mg/l, PDA plate medium, read-out: growth inhibition grade. The protocol:
as §1

Experiment [6] relates to Fusarium graminearum. As to the kind of experiment: whole plant or invertebrate. Conditions: in Triticum aestivum, 168 h, read-out: Protective value. The experiment is classed as in vivo.
In experiment [7] the test system is Aspergillus sp. As to the kind of experiment: Plate medium assay, industrial material deteriorating microorganism, Aspergillus (Experimental Example 5). Conditions: treatment at 50 mg/l, PDA plate medium, read-out: growth inhibition grade. The experiment is classed as cell-based. The protocol:
as §1

Experiment [8] relates to Puccinia recondita. As to the kind of experiment: Efficacy test against wheat brown rust, 100 mg/L and 10 mg/L (Experimental Example 2). Conditions: nine to 14 days after inoculation; for efficacy compared with compound (1): 10 mg/L sprayed at 1,000 L/ha; for pest or weed control at 100 µg/mL: Puccinia recondita, 336 h, 100 mg/L sprayed at 1,000 L/ha, read-out: Protective value. The experiment is classed as in vivo. The protocol: Onto a wheat plant (variety: NORIN No. 61) grown to the two-leaf phase using a square plastic pot (6 cm×6 cm), a wettable formulation such as Formulation Example 1 which was diluted and suspended in water at a certain concentration (100 mg/L and 10 mg/L) was sprayed at a rate of 1,000 L/ha. The sprayed leaves were air-dried, and inoculated with spore suspension of Puccinia recondita (adjusted at 200 spores/vision, […] was added at 60 ppm) by spraying, and kept at 25 degrees C. and a high humidity for 48 hours. Thereafter, the plant was kept in a greenhouse. Nine to 14 days after inoculation, the wheat brown rust lesion degree was investigated, and the protective value was calculated by the following equation. Protective value (%)=(1-lesion degree in sprayed plot/lesion degree in unsprayed plot)×100

Experiment [9] deals with Trichoderma sp. As to the kind of experiment: Plate medium assay, industrial material deteriorating microorganism, Trichoderma (Experimental Example 5). The experiment is classed as cell-based. Conditions: treatment at 50 mg/l, PDA plate medium, read-out: growth inhibition grade. How it is done:
as §1

Experiment [10] relates to Botrytis cinerea. The experiment can be described thus: Efficacy test against cucumber gray mold (Experimental Example 1). Conditions: 96 h, four days after inoculation, read-out: Protective value; for pest or weed control at 50 µg/mL: 50 mg/L sprayed at 1,000 L/ha; for pest or weed control at 100 µg/mL: 100 mg/L sprayed at 1,000 L/ha. The experiment is classed as in vivo. How it is done: Onto a cucumber (variety:SHARP1) plant in its cotyledon phase grown using a square plastic pot (6 cm×6 cm), a wettable formulation such as Formulation Example 1 which was diluted and suspended in water at a certain concentrations (100 mg/L and 50 mg/L) was sprayed at a rate of 1,000 L/ha. The sprayed leaves were air-dried, and loaded with a paper disc (8 mm in diameter) soaked in a spore suspension of Botrytis cinerea, and kept at 20 degrees C. and a high humidity. Four days after inoculation, the cucumber gray mold lesion degree was investigated, and the protective value was calculated by the following equation. Protective value (%)=(1−mean lesion degree in sprayed plot/mean lesion degree in unsprayed plot)×100

The subject of experiment [11] is Curvularia sp. As to the kind of experiment: Plate medium assay, industrial material deteriorating microorganism, Curvularia (Experimental Example 5). The experiment is classed as cell-based. Conditions: treatment at 50 mg/l, PDA plate medium, read-out: growth inhibition grade. The protocol: as §1
For experiment [12], the system named is Tyromyces palustris. The experiment can be described thus: Plate medium assay, wood denaturing microorganism Oouzuratake (Experimental Example 5). The experiment is classed as cell-based. Conditions: treatment at 50 mg/l, PDA plate medium; read-out: growth inhibition grade. The protocol: as §1
Experiment [13] concerns Coriolus versicolor. The experiment can be described thus: Plate medium assay, wood denaturing microorganism Kawaratake (Experimental Example 5). The experiment is classed as cell-based. Conditions: Trametes versicolor; treatment at 50 mg/l, PDA plate medium; read-out: growth inhibition grade. The protocol:
as §1

`CC1(C)CCC(Cc2ccc(Cl)cc2)C1(O)Cn1ncnc1S` (racemic) [compound (2)]: the lesion degree in experiment [1] is given as 5 (50% or higher). The growth inhibition grade in experiment [2] is given as 1 (% Mycerial growth inhibition of less than 20%).

By inhibition is commonly meant the relative decrease from the control value, in per cent. As usually defined, the EC80 is the concentration needed for an effect of 80%. Take `C[C@@]1(CCCl)CC[C@@H](Cc2ccc(Cl)cc2)[C@]1(O)Cn1cncn1` (racemic) [Compound I-104, (1RS,2SR,5SR)-5-(4-chlorobenzyl)-2-(2-chloroethyl)-2-methyl-1-(1H-1,2,4-triazol-1-ylmethyl)cyclopentanol]: the inhibition at 50 µg/mL in experiment [3], in [5], in [7], in experiment [9], in experiment [11] and in [12] was 60 to 80% each time. In experiment [13], the inhibition at 50 µg/mL fell in the range of 60 to 80%. Moreover, the EC80 in experiment [4] was at most 0.2 µg/mL. Moreover, the values for the pest or weed control at 100 µg/mL in experiment [6], in experiment [8] and in experiment [10] were at least 80%, at least 90% and at least 80%, respectively. The pest or weed control at 500 µg/mL in experiment [6] was at least 90%. The “efficacy compared with compound (1)” value in experiment [8] is on record as “higher efficacy than that of compound (1)”. Further, the pest or weed control at 50 µg/mL in experiment [10] was at least 80%.

On to `C[C@]1(CCl)CC[C@@H](Cc2ccc(F)cc2F)[C@]1(O)Cn1cncn1` (relative stereo) [Compound I-88], for which the “efficacy compared with compound (1)” value in experiment [8] is listed as “higher efficacy than that of compound (1)”. For the same compound, the lesion degree in [1] is recorded as 0.5 (Less than 1%). Also, the growth inhibition grade in [2] is on record as 5 (% Mycerial growth inhibition of 80% or higher).

In the case of `C[C@]1(CBr)CC[C@@H](Cc2ccc(Cl)cc2)[C@]1(O)Cn1cncn1` (racemic) [Compound I-25, (1RS,2SR,5SR)-2-bromomethyl-5-(4-chlorobenzyl)-2-methyl-1-(1H-1,2,4-triazol-1-ylmethyl)cyclopentanol], the inhibition at 50 µg/mL in experiment [3], in experiment [5], in experiment [7], in experiment [9], in [11] and in experiment [12] was 60 to 80% throughout. The inhibition at 50 µg/mL in experiment [13] is 60 to 80%. Besides, the EC80 in [4] was at most 0.2 µg/mL. In addition, the pest or weed control at 100 µg/mL was at least 80% in [6], at least 90% in experiment [8] and at least 80% in experiment [10]. In [6], the pest or weed control at 500 µg/mL was at least 90%. Besides, the “efficacy compared with compound (1)” value in experiment [8] is given as “higher efficacy than that of compound (1)”.

With `C[C@]1(CCl)CC[C@@H](Cc2cccc(Cl)c2)[C@]1(O)Cn1cncn1` (racemic) [Compound I-74, (1RS,2SR,5SR)-5-(3-chlorobenzyl)-2-chloromethyl-2-methyl-1-(1H-1,2,4-triazol-1-ylmethyl)cyclopentanol], the inhibition at 50 µg/mL in experiment [3], in experiment [5], in [7], in [9], in experiment [11] and in experiment [12] was 60 to 80% in each case. Besides, in experiment [13], the inhibition at 50 µg/mL was in the range of 60 to 80%. In addition, the EC80 in experiment [4] was at most 0.2 µg/mL. In addition, the pest or weed control at 100 µg/mL was at least 80% in [6], at least 90% in [8] and at least 80% in experiment [10]. For the same compound, in experiment [6], the pest or weed control at 500 µg/mL was at least 90%. Moreover, the “efficacy compared with compound (1)” value in experiment [8] is on record as “higher efficacy than that of compound (1)”. The pest or weed control at 50 µg/mL in experiment [10] was at least 80%.

Consider `C[C@]1(CBr)CC[C@@H](Cc2ccc(F)cc2)[C@]1(O)Cn1cncn1` (racemic) [Compound I-601, (1RS,2SR,5SR)-2-bromomethyl-5-(4-fluorobenzyl)-2-methyl-1-(1H-1,2,4-triazol-1-ylmethyl)cyclopentanol], for which the inhibition at 50 µg/mL in [3], in experiment [5], in experiment [7], in [9], in experiment [11] and in [12] was 60 to 80% each time. In experiment [13], the inhibition at 50 µg/mL was 60 to 80%. In addition, in [4], the EC80 was at most 0.2 µg/mL. For the same compound, the pest or weed control at 100 µg/mL in [6] was at least 80%; in [8], at least 90%; in [10], at least 80%. In experiment [6], the pest or weed control at 500 µg/mL is at least 90%. Moreover, in [8], the “efficacy compared with compound (1)” value was “higher efficacy than that of compound (1)”. Besides, in experiment [10], the pest or weed control at 50 µg/mL is at least 80%.

Take `CC(Cl)=C[C@@]1(C)CC[C@@H](Cc2ccc(Cl)cc2)[C@]1(O)Cn1cncn1` (racemic) [Compound I-15, (1RS,2RS,5SR)-5-(4-chlorobenzyl)-2-(2-chloropropenyl)-2-methyl-1-(1H-1,2,4-triazol-1-ylmethyl)cyclopentanol]: the inhibition at 50 µg/mL in experiment [3], in experiment [5], in experiment [7], in experiment [9], in experiment [11] and in experiment [12] was 60 to 80% in each case. For the same compound, the inhibition at 50 µg/mL in experiment [13] lay in the range of 60 to 80%. Moreover, the EC80 in experiment [4] was at most 0.2 µg/mL. In experiment [6], the pest or weed control at 500 µg/mL was at least 90%. Also, in experiment [8], the “efficacy compared with compound (1)” value was “higher efficacy than that of compound (1)”. Moreover, the pest or weed control at 100 µg/mL in [8] is at least 90%; in experiment [10], at least 80%. The pest or weed control at 50 µg/mL in experiment [10] is at least 80%.
